According to US9867811B2, “Method of treating atherosclerosis in high triglyceride subjects” (NOVARTIS AG, priority 2011, dated 2018):

Assays:
[1] = test system: CETP; experiment: Ex vivo CETP activity in plasma of hamsters (saline or Triton WR-1339 treated); details: hamster; for Inhibition of plasma CETP activity: saline group, 8 h after dose; for Extent of CETP inhibition reduced by, relative to the saline group (74% inhibition): 10 mg/kg oral; for Increase in plasma CETP activity: 3 h after administration
Method: Nine- to ten-week-old, male golden Syrian hamsters were purchased from Japan SLC Inc. (Shizuoka, Japan). Animals underwent a more than 1-week acclimation period under the following conditions: 8:00/20:00 light/dark cycle, room temperature 23±2° C. […] During this time, animals received filtered (0.5 μm) water and a standard chow diet ad libitum.
Whole blood samples were collected using a heparin-washed syringe (Heparin sodium injection “Ajinomoto”; Ajinomoto, Tokyo, Japan) from the abdominal vein by venipuncture under isoflurane (Abbott Japan Co. Ltd.) inhalant anesthesia. After centrifugation at 15,000 rpm for 10 min at 4° C., heparinized plasma was prepared and stored at −80° C. until use.
CETP activity (RFU/min) was defined as the change in fluorescence intensity from 30 to 90 min.
The effect of an acute increase of plasma triglycerides in vivo (acute increase in triglyceride-rich particles) on the ability of Torcetrapib to alter plasma CETP activity, triglyceride and total cholesterol levels was investigated. Torcetrapib at doses of 3, 10 or 30 mg/kg or vehicle was administered once by gavage to hamsters fed a standard chow diet.
Compound or vehicle was administered once by gavage to hamsters fed a standard chow diet.

[2] = test system: CETP; experiment: Ex vivo plasma CETP activity assay with exogenously added compound (maximum inhibition); format: biochemical; details: 10 μM, hamster plasma (80% plasma)
Method: Plasma CETP activity ex vivo was determined as followed: 50 μL of hamster plasma (final 80% plasma) was mixed with 10 μL of donor solution diluted with assay buffer composed of 50 mM Tris-HCl (pH7.4) containing 150 mM NaCl and 2 mM EDTA in a 96-well half area black flat bottom plate (Cat. No. 3686, Corning, Corning, N.Y.). Fluorescence intensity was measured every 15 min at an excitation wave length of 485 nm and an emission wavelength of 535 nm for 120 min at 37° C. using ARVO SX+L (PerkinElmer, Wellesley, Mass.). CETP activity (RFU/min) was defined as the change in fluorescence intensity from 30 to 90 min.

[3] = Total cholesterol and triglyceride concentrations in hamster plasma; format: in vivo; details: for Increase in plasma total cholesterol / Increase in plasma triglycerides: 3 h after administration
Method: Nine- to ten-week-old, male golden Syrian hamsters were purchased from Japan SLC Inc. (Shizuoka, Japan). Animals underwent a more than 1-week acclimation period under the following conditions: 8:00/20:00 light/dark cycle, room temperature 23±2° C. (range), 55±15% (range) humidity. During this time, animals received filtered (0.5 μm) water and a standard chow diet ad libitum.
(§1) To induce an acute increase in plasma triglyceride levels, Triton WR-1339 (Cat. No. 35418-12, Nacalai Tesque Inc, Kyoto, Japan) was dissolved in saline (Otsuka Normal Saline, Otsuka Pharmaceuticals, Tokushima, Japan) at a concentration of 2.5 to 10% (w/w), and was intravenously administered at a volume of 2 mL/kg from the basilic vein under isoflurane (FORANE®, Abbott Japan Co. Ltd., Tokyo, Japan) inhalant anesthesia. Whole blood samples were collected using a heparin-washed syringe (Heparin sodium injection “Ajinomoto”; Ajinomoto, Tokyo, Japan) from the abdominal vein by venipuncture under isoflurane (Abbott Japan Co. Ltd.) inhalant anesthesia. After centrifugation at 15,000 rpm for 10 min at 4° C., heparinized plasma was prepared and stored at −80° C. until use.
Compounds (CETP inhibitors) were suspended in 0.5% methyl cellulose (Methyl cellulose 400 cP, Cat. No. 138-05072, Wako Pure Chemical Industries, Osaka, Japan) solution, which was used as a vehicle. Compound or vehicle (10 mL/kg) was administered once by oral gavage 5 h before administration of Triton WR-1339.
Cholesterol and triglyceride concentrations in plasma and serum were measured manually with kits (Cholesterol E-test, Cat. No. 439-17501, and Triglyceride E-test, Cat. No. 432-40201, Wako Pure Chemical, Osaka, Japan).

[4] = HPLC lipoprotein analysis in hamster plasma; format: in vivo
Method: as §1
An HPLC-size exclusion chromatography system with an on-line enzymatic dual detection system for lipids has been used for lipoprotein analysis. Plasma samples were diluted (5-fold) with saline after filtration (0.45 μm, Millipore Co, Cat. No. UFC30HV00) and injected into the HPLC system at a volume of 100 μL (as 20 μL of plasma), every 95 min, using an auto-sampler. Plasma lipoproteins were separated using a single Superose 6 column and filtered phosphate buffered saline (0.45 μm, Millipore Co., Bedford, Mass., Cat. No. SJHVM4710; PBS, Dainippon Pharmaceutical, Osaka, Japan Cat. No. 28-103-05 FN) at a flow rate of 0.5 mL/min. Each enzymatic reagent was pumped at a flow rate of 0.25 mL/min. Both enzymatic reactions proceeded at 37° C. in a reactor coil (Teflon tube, 15 m×0.4 mm id) in the column oven. The color developed after the enzyme reaction was measured at 580 nm, and the electric signal was monitored (every 0.5 second).
A control pooled EDTA-plasma sample was used to standardize the cholesterol and phospholipid levels in lipoproteins. Cholesterol and phospholipid levels in the control plasma were measured manually with kits (Cholesterol E-test, Cat. No. 439-17501, and Phospholipid C-test, Cat. No. 433-36201, respectively, Wako Pure Chemical Industries), and the concentrations were 121.8 and 216.8 mg/dL, respectively. Concentrations of VLDL, LDL, and HDL-cholesterol and -phospholipid levels were calculated using chromatogram areas observed for control hamster plasma samples. With this methodology, the retention times of control hamster VLDL, LDL, and HDL were 18.5-24.0, 24.0-30.5, and 31.5-42.0 min, respectively.

[5] = test system: CETP; experiment: Plasma CETP concentrations (ELISA) in hamsters; format: in vivo; details: hamster, Triton WR-1339 i.v., any dose
Method: as §1
Plasma CETP concentrations were measured using an enzyme-linked […] assay (ELISA) kit (Cat No. 278181, Daiichi Pure Chemicals, Tokyo, Japan). Recombinant human CETP protein was used as a standard. Hamster plasma was diluted 250-fold by the dilution buffer in the kit, and then CETP concentration was measured according to the manufacturer's protocol.

Compound: CCOC(=O)N1c2ccc(C(F)(F)F)cc2[C@@H](N(Cc2cc(C(F)(F)F)cc(C(F)(F)F)c2)C(=O)OC)C[C@H]1CC [Torcetrapib]
- Differences between the saline and WR-1339 groups in the extent of CETP inhibition ([1]; 3 mg/kg oral gavage): 5.5%
- Inhibition of plasma CETP activity ([1]; 3 mg/kg oral gavage): 38%
- Differences between the saline and WR-1339 groups in the extent of CETP inhibition ([1]; 10 mg/kg oral gavage): 13%
- Inhibition of plasma CETP activity ([1]; 10 mg/kg oral gavage): 74%
- Extent of CETP inhibition reduced by, relative to the saline group (74% inhibition) ([1]; Triton WR-1339 50 mg/kg i.v.): 44%
- Extent of CETP inhibition reduced by, relative to the saline group (74% inhibition) ([1]; Triton WR-1339 100 mg/kg i.v.): 13%
- Differences between the saline and WR-1339 groups in the extent of CETP inhibition ([1]; 30 mg/kg oral gavage (P<0.01)): 35%
- Inhibition of plasma CETP activity ([1]; 30 mg/kg oral gavage): 88%
- Inhibition of CETP activity, lower dose group, Triton WR-1339 group ([1]; oral gavage: Torcetrapib 5 mg/kg, Anacetrapib 1.5 mg/kg, Example 49 1.5 mg/kg, Example 8 0.75 mg/kg, Triton WR-1339 100 mg/kg i.v., not significant vs vehicle): 13%
- Inhibition of CETP activity, lower dose group, saline group ([1]; oral gavage: Torcetrapib 5 mg/kg, Anacetrapib 1.5 mg/kg, Example 49 1.5 mg/kg, Example 8 0.75 mg/kg, saline i.v.): 60%
- Inhibition of CETP activity, higher dose group, Triton WR-1339 group ([1]; oral gavage: Torcetrapib 10 mg/kg, Anacetrapib 3 mg/kg, Example 49 3 mg/kg, Example 8 1.5 mg/kg, Triton WR-1339 100 mg/kg i.v.): 8%
- Inhibition of CETP activity, higher dose group, saline group ([1]; oral gavage: Torcetrapib 10 mg/kg, Anacetrapib 3 mg/kg, Example 49 3 mg/kg, Example 8 1.5 mg/kg, saline i.v.): 75%
- Maximum inhibition of CETP activity, compound exogenously added, Triton WR-1339 group ([2]; Triton WR-1339 group): around 75%
- Maximum inhibition of CETP activity, compound exogenously added, saline group ([2]; saline group): ~100%
- Effect on plasma triglycerides ([3]; Triton WR-1339 treatment groups): did not affect
- Effect on plasma triglyceride levels ([3]; saline group, 3 and 30 mg/kg oral doses): slightly, but significantly, lowered
- Effect on total cholesterol levels ([3]; saline or Triton WR-1339 groups): not changed

Compound: Triton WR-1339
- Effect on HDL-cholesterol ([4]; Triton WR-1339 50 mg/kg i.v.): not changed
- Effect on HDL-cholesterol ([4]; Triton WR-1339 100 mg/kg i.v.): reduced
- Effect on LDL-cholesterol ([4]; Triton WR-1339 i.v.): reduced
- Effect on cholesterol content of VLDL ([4]; Triton WR-1339 i.v. compared to saline group): increased
- Increase in plasma CETP activity ([1]; Triton WR-1339 50 mg/kg i.v.): 1.7 fold
- Increase in plasma CETP activity ([1]; Triton WR-1339 100 mg/kg i.v.): 3.7 fold
- Effect on plasma CETP concentrations [5]: did not significantly affect
- Increase in plasma total cholesterol ([3]; Triton WR-1339 50 mg/kg i.v.): 1.2 fold
- Increase in plasma triglycerides ([3]; Triton WR-1339 50 mg/kg i.v.): 2.0 fold
- Increase in plasma total cholesterol ([3]; Triton WR-1339 100 mg/kg i.v.): 1.4 fold
- Increase in plasma triglycerides ([3]; Triton WR-1339 100 mg/kg i.v.): 4.0 fold
- Time of maximum increase in triglyceride levels after administration ([3]; Triton WR-1339 50, 100 or 200 mg/kg i.v.): 8 h
